{
  "source": "patent US20250120942A1",
  "about": "“BRAIN FUNCTION IMPROVING AGENT” (OSAKA UNIVERSITY, priority 2021, published 2025)",
  "key": {"[1]": {"test_system": "scopolamine-induced amnesia mouse", "assay": "Y-maze test, short-term working memory of scopolamine-induced amnesia mouse (Test Example 2)", "assay_type": "in vivo, ddY mouse", "conditions": "for scopolamine-induced reduction in working memory (Spontaneous Alternation): FIG. 2(C)", "procedure": "The effect of inhibiting lowering of short-term memory was examined by orally or subcutaneously (intraperitoneally) administering the compound A to the mouse.\n7-weeks-old male ddY mice were purchased from Japan SLC, Inc. and subjected to the experiment after one week habituation period. The animals were reared in the rearing chamber provided with air conditioner (under the condition that the temperature was 22° C.±1° C., the relative humidity was 50±10%, and the irradiation time was 12 hours (8:00 to 20:00)). The feeding method was that the commercially available MF powdery feed (manufactured by Oriental Yeast Co., ltd.) and tap water were taken freely.\nThe compound A prepared according to the procedure described in Manufacturing Example 1 was dissolved in 2.5% DMSO solution in advance. There were 15 mice in each group, and the 30 mg/kg compound administration group and the 10 mg/kg compound administration group were established and orally administered. The mice of the control group and Vehicle group were orally administered with only 2.5% DMSO solution. In the same manner the compound B and the compound C were orally administered to 10 mice at a dose of 30 mg/kg respectively. Each mouse of the administration groups of the compound A to C and the vehicle group was intraperitoneally administered with scopolamine hydrobromide (manufactured by Sigma-Aldrich Japan S1875) (a dose of 1 mg/kg) which is muscarinic acetylcholine receptor antagonist 30 minutes after the administration. The mice of the control group which were not administered with scopolamine hydrobromide were intraperitoneally administered with (Japanese Pharmacopoeia) physiological saline solution (OTSUKA NORMAL SALINE 3311401A2026). At 30 minutes after the final administration, Y-maze test was conducted, and the working memory was evaluated. The test using the mice orally administered was separately conducted under the same condition as that described above for comparative evaluation of the intraperitoneal administration.\nThe Y-maze manufactured by Brain Science. idea Co., Ltd. was used for the test. The maze was the maze 3 courses of which were made into Y-letter shape having one selection point and arranged at interval of an angle of 120 degree. […] The mouse put on the gray course (made of polyvinyl chloride) was kept in the conditions and the mouse can see nothing but the upper part. Any one of the 3 courses of the maze was set as a starting point. After placing the mouse quietly at the starting point, the number of the times the mouse entered each course was record per 8 minutes, and as well as which course and in what order the mouse entered it. The ratio of the number of three consecutive entries into different courses (the number of the alternation behavior) to the total number of the selections was calculated as Spontaneous Alternation (%) according to the following formula and was used as an index of the short-term working memory.\nFrom the results obtained, the mean (Mean) and the standard error (SEM) were calculated. The significant difference between the control group and the Vehicle group and between the compound A administration group and the Vehicle group was assessed by Turkey-Kramer's test. The level of significance was set to *P<0.05 and **p<0.01."}, "[2]": {"test_system": "mouse reared in long-term isolation", "assay": "Forced swimming test in mouse reared in long-term isolation (Test Example 6)", "assay_type": "in vivo, ddY mouse", "conditions": "test 30 minutes after administration, 5 weeks isolation, FIG. 6", "procedure": "The psychiatric disorder model mouse which was reared in isolation for 5 weeks was orally administered with the compound A and 30 minutes after the administration subjected to the Forced swimming test. The effect of improving depressive symptoms was examined.\nThe 3-weeks old male ddY mouse which was reared in isolation for 5 weeks in the same manner as in Test Example 3 was used for the test.\nThe compound A was dissolved in 2.5% DMSO solution in advance. After long-term isolated rearing the mice were divided into 3 groups of 7 mice and the administration groups of the compound A (the administration group of 30 mg/kg, the administration group of 10 mg/kg) and Vehicle group (the administration group of 2.5% DMSO solution) were set and the oral administration was carried out.\nIn 30 minutes after the oral administration, the forced swimming test was carried out in the same manner as in Test Example 5. The immobility time was measured during the test of 6 minutes and the depressive symptoms of the mouse was evaluated.\nFrom the results obtained, the mean (Mean) and the standard error (SEM) were calculated. The significant difference was assessed between the compound A administration group and the Vehicle group by using Dunnett's test. The level of significance was set to *P<0.05. The vertical axis of the graph in FIG. 6 represents the immobility time during the test."}, "[3]": {"test_system": "model mouse with the inflammation in brain induced by administering LPS", "assay": "Forced swimming test in mouse with inflammation in brain induced by LPS (Test Example 5)", "assay_type": "in vivo, C57/BL6J mice", "conditions": "test 24 hours after LPS, FIG. 5", "from_the_text": "In regard to the depressive symptoms induced by taking LPS (Lipopolysaccharide), the effect of inhibiting the symptom by oral administration of the compound A was examined. The inflammation in the brain is thought to be one of the main onset factors of depression. It is known that LPS causes the inflammation in the brain by inducing the decrease in brain-derived neurotrophic factor and the variation of the density of dendrite of neuron, activating microglia and the like and induce depressive symptoms. […]\nIn 24 hours after the intraperitoneal administration of LPS, forced swimming test was conducted. The depressive symptoms were evaluated by measurement of the immobility time.\nWater (25±1° C.) was put into the acryl resin cylinder (diameter 19 cm, height 25 cm) up to a height of 13 cm. The subject mouse was forced to swim for 6 minutes one by one and the state was video-recorded. […] “The state that the mouse floated on the water surface without moving its limbs and the like” was regarded as immobility and the Immobility Time (sec.) was measured during the test of 6 minutes.\nFrom the results obtained, the mean (Mean) and the standard error (SEM) were calculated. The significant difference was assessed between the control group and Vehicle group and between the compound A administration group and the […] by using Turkey-Kramer's test. […]"}},
  "data": [
    {"smiles": "O=C1CC[C@H](Cc2cc(O)cc(O)c2)O1", "note": "[compound A, (R)-5-(3,5-dihydroxyphenyl)-γ-valerolactone]", "values": [
      {"measurement": "ameliorating the impairment of short-term working memory (Spontaneous Alternation)", "setting": "[1]; oral 30 mg/kg, scopolamine 1 mg/kg i.p., FIG. 2(A),(B)", "result": "significant effect of inhibiting the lowering of short-term working memory"},
      {"measurement": "lowering of the short-term memory due to scopolamine (Spontaneous Alternation)", "setting": "[1]; oral administration groups (10 mg/kg and 30 mg/kg), scopolamine 1 mg/kg i.p. 30 minutes later, FIG. 2(A)", "result": "inhibited"},
      {"measurement": "scopolamine-induced reduction in working memory (Spontaneous Alternation)", "setting": "[1]; oral administration", "result": "inhibited scopolamine-induced reductions in working memory"},
      {"measurement": "scopolamine-induced reduction in working memory (Spontaneous Alternation)", "setting": "[1]; subcutaneous administration", "result": "inhibited scopolamine-induced reductions in working memory"},
      {"measurement": "immobility time in forced swimming test versus vehicle group", "setting": "[2]; oral 10 mg/kg", "result": "significantly reduced"},
      {"measurement": "immobility time in forced swimming test versus vehicle group", "setting": "[2]; oral 30 mg/kg", "result": "significantly reduced"},
      {"measurement": "increase of the immobility time in forced swimming test", "setting": "[3]; oral 10 mg/kg and 30 mg/kg groups, LPS 0.5 mg/kg i.p. 30 minutes later", "result": "reduced"},
      {"measurement": "immobility time in forced swimming test", "setting": "[3]; oral 30 mg/kg, LPS 0.5 mg/kg i.p.", "result": "on the same level as that in the control group"}
    ]}
  ]
}
